Assay results as given in patent US7112593B2, “N-aryl-substituted cyclic amine derivative and medicine containing the same as active ingredient” (Eisai Co., Ltd., priority 2001, dated 2006).
pIC50: −log10 of the molar value.

What was measured:
rat liver cell = assay: Measurement of cholesterol biosynthesis inhibitive activity in a rat liver cell; assay type: cell-based; conditions: isolated male SD rat liver cells, [1-14C]acetic acid incorporation into free cholesterol
Description: Measurement of Cholesterol Biosynthesis Inhibitive Activity in a Rat Liver Cell
A liver cell was isolated from a male SD rat according to a usual method (collagenase perfusion method) and subjected to an experiment.
The isolated liver cells were planted in an amount of 500 μl every well on a Type collagen coated 24 well plate (cell density: 4×10^5 cell/ml). As the cell culture solution, a Williams' E medium (adjusted to pH 7.4) containing 10% FCS, 1 μM insulin, 1 μM dexamethasone, 100 units/ml penicillin and 100 μg/ml streptomycin was used. After the liver cells were incubated in a CO2 incubator for 2 hours, unattached cells were removed and the liver cells were further incubated overnight.
After the culture medium was exchanged, the specimen diluted in a 10% DMSO-90% cell culture solution was added to each well inan amount of 5 μl. DMSO (final concentration: 0.1%) was added toacontrolgroup. A [1-^14C]Aceticacid, sodiumsalt (5 μCi/well) was added to the media 10 minutes after the specimen was added, followed by culturing for further 2 hours. […]
After the development was finished, the TLC plate was subjected to iodine color development. […] This transferred image was analyzed using a BAS 2000 IP Reader and an Imaging analyzer II to measure radio activities contained in the free cholesterol fractions. […]

Squalene synthase = target: T1, Squalene synthase (Rattus norvegicus, UniProt Q02769); assay: Measurement of squalene synthase inhibitive activity by using a rat liver microsome; assay type: biochemical; conditions: [3H]-farnesylpyrophosphoric acid
T1 construct: the obtained residue was used as a microsome fraction; from tissue; host or cells: liver microsome fraction of male Sprague-Dawley rat (8 to 9 weeks in age)
T1 sequence (Q02769 1-416): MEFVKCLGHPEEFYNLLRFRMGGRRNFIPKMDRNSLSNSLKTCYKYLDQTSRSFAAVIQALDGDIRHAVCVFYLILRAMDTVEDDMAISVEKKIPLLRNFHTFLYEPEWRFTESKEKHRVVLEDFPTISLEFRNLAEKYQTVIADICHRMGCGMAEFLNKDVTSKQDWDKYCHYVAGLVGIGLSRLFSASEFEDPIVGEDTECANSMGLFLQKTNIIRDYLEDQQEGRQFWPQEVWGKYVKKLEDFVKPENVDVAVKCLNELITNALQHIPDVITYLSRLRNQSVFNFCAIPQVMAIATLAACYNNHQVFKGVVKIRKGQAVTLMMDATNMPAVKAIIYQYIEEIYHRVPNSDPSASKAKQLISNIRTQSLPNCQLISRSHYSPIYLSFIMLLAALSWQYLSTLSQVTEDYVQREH
Description: Measurement of Squalene Synthase Inhibitive Activity by Using a Rat Liver Microsome
(I) The reaction was run on a scale of 500 μl. 200 μl of a solution containing 125 mM tris-hydrochloric acid (pH: 7.3), 2.5 mM magnesium chloride, 5 mM potassium fluoride and 10 mM reduction type nicotinamidoadenine dinucleotide phosphoric acid, 100 μl of the specimen solution with a 5-fold concentration, 100 μl of distilled water and 50 μl of 0.4 to 1 mg/ml rat liver microsome prepared by the following method were mixed.
(II) The above mixture was pre-incubated at 37° C. for 10 minutes and thereafter, 50 μl of 100 μM [^3H]-farnesylpyrophosphoric acid (30 mCi/mmol, NEN) was added to the mixture to start a reaction. The reaction was continued at 37° C. for 10 minutes. 1 ml of ethanol was added to the resulting mixture to terminate the reaction and then 1 ml of distilled water and 3 ml of petroleum ether were added to the reaction solution, which was then shaken for 30 minutes. The water phase was separated from the organic phase, the water phase was frozen at −70° C. in dry ice/methanol and the radio activity of the organic phase was measured using a liquid scintillator. Or the organic phase was evaporated to dryness using nitrogen gas and the residue was dissolved as a marker in 25 μl of chloroform containing squalene, farnesol and cholesterol. This sample was spotted on a TCL plate (Merck) and developed using heptane for 15 to 20 minutes. A band of squalene was cut from the plate to measure the radio activity by using a liquid scintillation counter. The data was expressed by a concentration (IC50) at which 50% of the radio activity of a control group was inhibited.
Preparation Method for Rat Liver Microsome
All the following operations were performed on ice and centrifugation was performed at 4° C. […] The protein concentration of the suspension was quantitated by the Bradford method and the suspension was adjusted to 20 mg/ml with the same solution and stored at −70° C.

SMILES | pIC50 (rat liver cell) | pIC50 (Squalene synthase)
CO[C@@H]1CN(c2ccc(C#CC3(O)CCCNC3)c(Cc3ccccc3)n2)C[C@H]1O (stereo partly drawn) [Example 1, 3-[2-Benzyl-6-[(3R,4R)-3-hydroxy-4-methoxypyrrolidin-1-yl]-3-pyridyl]ethynyl-3-piperidinol] | 9.35 | 8.85
CO[C@@H]1CN(c2ccc(C#CC3(N)CCCCC3)c(Cc3ccccc3)n2)C[C@H]1O [Example 7, 1-[2-Benzyl-6-[(3R,4R)-3-hydroxy-4-methoxypyrrolidin-1-yl]-3-pyridyl]ethynylcyclohexylamine] | – | 9.28
CO[C@H]1C(=O)N(c2ccc(C#CC3(N)CCCCC3)c(Cc3ccccc3)n2)C[C@H]1O [Example 9, 1-[2-Benzyl-6-[(3R,4R)-4-hydroxy-3-methoxy-2-pyrrolidinon-1-yl]-3-pyridyl]ethynylcyclohexylamine] | – | 9.11
CO[C@H]1CN(c2ccc(C#C[C@@]3(O)CN4CCC3CC4)c(Cc3ccccc3)c2)C[C@H]1OC [Example 18, (3R)-3-[2-Benzyl-4-[(3R,4S)-3,4-dimethoxypyrrolidin-1-yl)phenyl]ethynyl-3-quinuclidinol] | 9.80 | –
